Source: US12077503B2, “Substituted cyclic amides and their use as herbicides” (FMC CORPORATION, priority 2015, dated 2024)

Experiments:
Assay type in all cases: in vivo
[1] = system: redroot pigweed (Amaranthus retroflexus); assay: Test G Pre-Emergence Protocol; details: Amaranthus retroflexus, pre-emergence, 312 h, evaluated after 13 days; for pest or weed control at 15.625 g/ha: 15.625 g ai/ha; for pest or weed control at 15.625 g/ha / pest or weed control at 250 g/ha: read-out: Pigweed, Redroot damage rating (100=total damage to plant; 0=no damage to plant); for pest or weed control at 62.5 g/ha: 62.5 g ai/ha, 100=total damage to plant, 0=no damage to plant, read-out: plant damage rating, Pigweed, Redroot; for pest or weed control at 250 g/ha: 250 g ai/ha
Outline: (§1)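 Pre-emergence spray, 15.625/62.5/250 g/ha, vehicle acetone:water 50:50 + 0.5% Tween 20, applied 1 d after sowing. Glasshouse 24/16° C, 14 h light, 65% RH, watered twice daily. Visual damage rating at 13 d, 0–100 scale.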

[2] = system: barnyardgrass (Echinochloa crus-galli); assay: Test G Pre-Emergence Protocol; details: Echinochloa crus-galli, pre-emergence, 312 h, evaluated after 13 days; for pest or weed control at 15.625 g/ha: 15.625 g ai/ha, read-out: Barnyard grass damage rating (100=total damage to plant; 0=no damage to plant); for pest or weed control at 62.5 g/ha: 62.5 g ai/ha, 100=total damage to plant, 0=no damage to plant, read-out: plant damage rating, Barnyardgrass; for pest or weed control at 250 g/ha: 250 g ai/ha, read-out: Barnyardgrass damage rating (100=total damage to plant; 0=no damage to plant)
Outline: as §1

[3] = system: corn (Zea mays); assay: Test G Pre-Emergence Protocol; details: Zea mays, pre-emergence, 312 h, evaluated after 13 days; for plant injury at 15.625 g/ha: 15.625 g ai/ha; for plant injury at 15.625 g/ha / plant injury at 250 g/ha: read-out: Corn damage rating (100=total damage to plant; 0=no damage to plant); for plant injury at 62.5 g/ha: 62.5 g ai/ha, 100=total damage to plant, 0=no damage to plant, read-out: plant damage rating, Corn; for plant injury at 250 g/ha: 250 g ai/ha
Outline: as §1

[4] = system: giant foxtail (Setaria faberi); assay: Test G Pre-Emergence Protocol; details: Setaria faberi, pre-emergence, 312 h, evaluated after 13 days; for pest or weed control at 15.625 g/ha: 15.625 g ai/ha; for pest or weed control at 15.625 g/ha / pest or weed control at 250 g/ha: read-out: Foxtail, Giant damage rating (100=total damage to plant; 0=no damage to plant); for pest or weed control at 62.5 g/ha: 62.5 g ai/ha, 100=total damage to plant, 0=no damage to plant, read-out: plant damage rating, Foxtail, Giant; for pest or weed control at 250 g/ha: 250 g ai/ha
Outline: as §1

[5] = system: velvetleaf (Abutilon theophrasti); assay: Test G Pre-Emergence Protocol; details: Abutilon theophrasti, pre-emergence, 312 h, evaluated after 13 days; for pest or weed control at 15.625 g/ha: 15.625 g ai/ha; for pest or weed control at 15.625 g/ha / pest or weed control at 250 g/ha: read-out: Velvetleaf damage rating (100=total damage to plant; 0=no damage to plant); for pest or weed control at 62.5 g/ha: 62.5 g ai/ha, 100=total damage to plant, 0=no damage to plant, read-out: plant damage rating, Velvetleaf; for pest or weed control at 250 g/ha: 250 g ai/ha
Outline: as §1

[6] = system: ivy-leaved morning glory (Ipomoea hederacea); assay: Test G Pre-Emergence Protocol; details: Ipomoea, pre-emergence, 312 h, evaluated after 13 days; for pest or weed control at 15.625 g/ha: 15.625 g ai/ha, read-out: Morning-glory, Ivy-leaved damage rating (100=total damage to plant; 0=no damage to plant); for pest or weed control at 62.5 g/ha: 62.5 g ai/ha, 100=total damage to plant, 0=no damage to plant, read-out: plant damage rating, Morningglory, Ivy-leaved; for pest or weed control at 250 g/ha: 250 g ai/ha, read-out: Morningglory, Ivy-leaved damage rating (100=total damage to plant; 0=no damage to plant)
Outline: as §1

[7] = system: redroot pigweed (Amaranthus retroflexus); assay: Test G Post-Emergence Protocol; details: Amaranthus retroflexus, post-emergence, 312 h; for pest or weed control at 15.625 g/ha: 15.625 g ai/ha, evaluated after 13 days (100=total damage to plant; 0=no damage to plant), read-out: Pigweed, Redroot damage rating; for pest or weed control at 62.5 g/ha: 62.5 g ai/ha, read-out: Pigweed, Redroot damage rating (100=total damage to plant; 0=no damage to plant); for pest or weed control at 62.5 g/ha / pest or weed control at 250 g/ha: evaluated after 13 days; for pest or weed control at 250 g/ha: 250 g ai/ha, read-out: damage to plant, Pigweed, Redroot (100=total damage to plant; 0=no damage to plant)
Outline: (§2)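 Post-emergence herbicidal damage, scored visually 0–100 at 13 days. Application at 15.625, 62.5 or 250 g/ha onto 8-day-old plants grown under glasshouse control.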

[8] = system: barnyardgrass (Echinochloa crus-galli); assay: Test G Post-Emergence Protocol; details: Echinochloa crus-galli, post-emergence, 312 h; for pest or weed control at 15.625 g/ha: 15.625 g ai/ha, evaluated after 13 days (100=total damage to plant; 0=no damage to plant), read-out: Barnyardgrass damage rating; for pest or weed control at 62.5 g/ha: 62.5 g ai/ha, read-out: Barnyardgrass damage rating (100=total damage to plant; 0=no damage to plant); for pest or weed control at 62.5 g/ha / pest or weed control at 250 g/ha: evaluated after 13 days; for pest or weed control at 250 g/ha: 250 g ai/ha, read-out: damage to plant, Barnyardgrass (100=total damage to plant; 0=no damage to plant)
Outline: as §2

[9] = system: corn (Zea mays); assay: Test G Post-Emergence Protocol; details: Zea mays, post-emergence, 312 h; for plant injury at 15.625 g/ha: 15.625 g ai/ha, evaluated after 13 days (100=total damage to plant; 0=no damage to plant), read-out: Corn damage rating; for plant injury at 62.5 g/ha: 62.5 g ai/ha, read-out: Corn damage rating (100=total damage to plant; 0=no damage to plant); for plant injury at 62.5 g/ha / plant injury at 250 g/ha: evaluated after 13 days; for plant injury at 250 g/ha: 250 g ai/ha, read-out: damage to plant, Corn (100=total damage to plant; 0=no damage to plant)
Outline: as §2

[10] = system: giant foxtail (Setaria faberi); assay: Test G Post-Emergence Protocol; details: Setaria faberi, post-emergence, 312 h; for pest or weed control at 15.625 g/ha: 15.625 g ai/ha, evaluated after 13 days (100=total damage to plant; 0=no damage to plant), read-out: Foxtail, Giant damage rating; for pest or weed control at 62.5 g/ha: 62.5 g ai/ha, read-out: Foxtail, Giant damage rating (100=total damage to plant; 0=no damage to plant); for pest or weed control at 62.5 g/ha / pest or weed control at 250 g/ha: evaluated after 13 days; for pest or weed control at 250 g/ha: 250 g ai/ha, read-out: damage to plant, Foxtail, Giant (100=total damage to plant; 0=no damage to plant)
Outline: as §2

[11] = system: velvetleaf (Abutilon theophrasti); assay: Test G Post-Emergence Protocol; details: Abutilon theophrasti, post-emergence, 312 h; for pest or weed control at 15.625 g/ha: 15.625 g ai/ha, evaluated after 13 days (100=total damage to plant; 0=no damage to plant), read-out: Velvetleaf damage rating; for pest or weed control at 62.5 g/ha: 62.5 g ai/ha, read-out: Velvetleaf damage rating (100=total damage to plant; 0=no damage to plant); for pest or weed control at 62.5 g/ha / pest or weed control at 250 g/ha: evaluated after 13 days; for pest or weed control at 250 g/ha: 250 g ai/ha, read-out: damage to plant, Velvetleaf (100=total damage to plant; 0=no damage to plant)
Outline: as §2

[12] = system: ivy-leaved morning glory (Ipomoea hederacea); assay: Test G Post-Emergence Protocol; details: Ipomoea, post-emergence, 312 h; for pest or weed control at 15.625 g/ha: 15.625 g ai/ha, evaluated after 13 days (100=total damage to plant; 0=no damage to plant), read-out: Morningglory, Ivy-leaved damage rating; for pest or weed control at 62.5 g/ha: 62.5 g ai/ha, read-out: Morningglory, Ivy-leaved damage rating (100=total damage to plant; 0=no damage to plant); for pest or weed control at 62.5 g/ha / pest or weed control at 250 g/ha: evaluated after 13 days; for pest or weed control at 250 g/ha: 250 g ai/ha, read-out: damage to plant, Morningglory, Ivy-leaved (100=total damage to plant; 0=no damage to plant)
Outline: as §2

Cc1c(Cl)cccc1NC(=O)[C@@H]1C(=O)N(C)C[C@H]1c1ccc(C(F)(F)F)cc1 (racemic) [Compound 1607] showed a pest or weed control at 15.625 g/ha [1] of 0%, a pest or weed control at 62.5 g/ha [1] of 20% and a pest or weed control at 250 g/ha [1] of 30%. For the same compound, the pest or weed control at 15.625 g/ha [2] was 0%, the pest or weed control at 62.5 g/ha [2] was 40% and the pest or weed control at 250 g/ha [2] was 80%. For the same compound, the plant injury at 15.625 g/ha [3] was 0%, the plant injury at 62.5 g/ha [3] was 0% and the plant injury at 250 g/ha [3] was 10%. It also gave a pest or weed control at 15.625 g/ha [4] of 50%, a pest or weed control at 62.5 g/ha [4] of 80% and a pest or weed control at 250 g/ha [4] of 80%. For the same compound, the pest or weed control at 15.625 g/ha [5] was 0%, the pest or weed control at 62.5 g/ha [5] was 0% and the pest or weed control at 250 g/ha [5] was 20%. The pest or weed control at 15.625 g/ha [6] was 0%, the pest or weed control at 62.5 g/ha [6] was 10% and the pest or weed control at 250 g/ha [6] was 20%. The pest or weed control at 15.625 g/ha [7] was 0%, the pest or weed control at 62.5 g/ha [7] was 40% and the pest or weed control at 250 g/ha [7] was 70%. It also gave a pest or weed control at 15.625 g/ha [8] of 0%, a pest or weed control at 62.5 g/ha [8] of 50% and a pest or weed control at 250 g/ha [8] of 60%. The plant injury at 15.625 g/ha [9] was 0%, the plant injury at 62.5 g/ha [9] was 0% and the plant injury at 250 g/ha [9] was 60%. For the same compound, the pest or weed control at 15.625 g/ha [10] was 50%, the pest or weed control at 62.5 g/ha [10] was 80% and the pest or weed control at 250 g/ha [10] was 80%. The pest or weed control at 15.625 g/ha [11] was 10%, the pest or weed control at 62.5 g/ha [11] was 30% and the pest or weed control at 250 g/ha [11] was 40%. The pest or weed control at 15.625 g/ha [12] was 20%, the pest or weed control at 62.5 g/ha [12] was 30% and the pest or weed control at 250 g/ha [12] was 60%.
CN1C[C@H](c2ccc(C(F)(F)F)cc2)[C@@H](C(=O)Nc2cccc3nsnc23)C1=O (racemic) [Compound 1430] gave a pest or weed control at 15.625 g/ha [1] of 0%, a pest or weed control at 62.5 g/ha [1] of 0% and a pest or weed control at 250 g/ha [1] of 0%. It also gave a pest or weed control at 15.625 g/ha [2] of 0%, a pest or weed control at 62.5 g/ha [2] of 20% and a pest or weed control at 250 g/ha [2] of 60%. For the same compound, the plant injury at 15.625 g/ha [3] was 0%, the plant injury at 62.5 g/ha [3] was 0% and the plant injury at 250 g/ha [3] was 0%. It also gave a pest or weed control at 15.625 g/ha [4] of 10%, a pest or weed control at 62.5 g/ha [4] of 50% and a pest or weed control at 250 g/ha [4] of 80%. It also gave a pest or weed control at 15.625 g/ha [5] of 0%, a pest or weed control at 62.5 g/ha [5] of 0% and a pest or weed control at 250 g/ha [5] of 0%. The pest or weed control at 15.625 g/ha [6] was 0%, the pest or weed control at 62.5 g/ha [6] was 0% and the pest or weed control at 250 g/ha [6] was 0%. For the same compound, the pest or weed control at 15.625 g/ha [7] was 0%, the pest or weed control at 62.5 g/ha [7] was 0% and the pest or weed control at 250 g/ha [7] was 20%. For the same compound, the pest or weed control at 15.625 g/ha [8] was 0%, the pest or weed control at 62.5 g/ha [8] was 0% and the pest or weed control at 250 g/ha [8] was 30%. It also gave a plant injury at 15.625 g/ha [9] of 0%, a plant injury at 62.5 g/ha [9] of 0% and a plant injury at 250 g/ha [9] of 0%. The pest or weed control at 15.625 g/ha [10] was 0%, the pest or weed control at 62.5 g/ha [10] was 10% and the pest or weed control at 250 g/ha [10] was 50%. For the same compound, the pest or weed control at 15.625 g/ha [11] was 0%, the pest or weed control at 62.5 g/ha [11] was 0% and the pest or weed control at 250 g/ha [11] was 0%. For the same compound, the pest or weed control at 15.625 g/ha [12] was 0%, the pest or weed control at 62.5 g/ha [12] was 0% and the pest or weed control at 250 g/ha [12] was 0%.
